# Data taken from the supplement of paper PMC10307832.
# Columns and labels:
# Experiment in all cases: relative viability (nuclei count vs DMSO), 5 days (fraction); higher = more cells survive
# NCI-H2009 = system: NCI-H2009
# Procedure, shortened: (§1)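 Relative viability is defined as nuclei in treated wells over nuclei in vehicle wells. Duplicate plates were run and medians reported. Lung cancer cell lines in 1536-well plates were dosed by pin tool one day after seeding, with one drug or with a fixed anchor-drug dose plus five library-drug doses (not always all listed) in √10 steps, and nuclei were counted after 5 days.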
# HCC-44 = system: HCC-44
# Procedure, shortened: as §1
# NCI-H1944 = system: NCI-H1944
# Procedure, shortened: as §1
# NCI-H2023 = system: NCI-H2023
# Procedure, shortened: as §1
# HCC-827 = system: HCC-827
# Procedure, shortened: as §1
# NCI-H2228 = system: NCI-H2228
# Procedure, shortened: as §1
# HCC-366 = system: HCC-366
# Procedure, shortened: as §1
# COR-L23 = system: COR-L23
# Procedure, shortened: as §1
# SW 1573 = system: SW 1573
# Procedure, shortened: as §1
# ABC-1 = system: ABC-1
# Procedure, shortened: as §1
# NCI-H2085 = system: NCI-H2085
# Procedure, shortened: as §1
# LCLC-103H = system: LCLC-103H
# Procedure, shortened: as §1
# NCI-H3122 = system: NCI-H3122
# Procedure, shortened: as §1
# PC-14 = system: PC-14
# Procedure, shortened: as §1
# NCI-H2347 = system: NCI-H2347
# Procedure, shortened: as §1
# NCI-H1355 = system: NCI-H1355
# Procedure, shortened: as §1
# NCI-H1793 = system: NCI-H1793
# Procedure, shortened: as §1
# NCI-H2405 = system: NCI-H2405
# Procedure, shortened: as §1
# HCC-15 = system: HCC-15
# Procedure, shortened: as §1
# EPLC-272H = system: EPLC-272H
# Procedure, shortened: as §1
# NCI-H1734 = system: NCI-H1734
# Procedure, shortened: as §1
smiles,measurement,setting,value
CCNC(=O)c1noc(-c2cc(C(C)C)c(O)cc2O)c1-c1ccc(CN2CCOCC2)cc1 [Luminespib] + Cc1nc(NC(=O)N2CCC[C@H]2C(N)=O)sc1-c1ccnc(C(C)(C)C(F)(F)F)c1 [Alpelisib] (partner 2 µM),relative viability,NCI-H2009; first compound 0.002 µM,1.29
same,relative viability,NCI-H2009; first compound 0.006325 µM,1.02
same,relative viability,NCI-H2009; first compound 0.02 µM,1.28
same,relative viability,NCI-H2009; first compound 0.06325 µM,0.698
same,relative viability,NCI-H2009; first compound 0.2 µM,0.0841
same,relative viability,HCC-44; first compound 0.002 µM,0.82
same,relative viability,HCC-44; first compound 0.006325 µM,0.886
same,relative viability,HCC-44; first compound 0.02 µM,0.851
same,relative viability,HCC-44; first compound 0.06325 µM,0.152
same,relative viability,HCC-44; first compound 0.2 µM,0.154
same,relative viability,NCI-H1944; first compound 0.002 µM,0.861
same,relative viability,NCI-H1944; first compound 0.006325 µM,0.826
same,relative viability,NCI-H1944; first compound 0.02 µM,0.539
same,relative viability,NCI-H1944; first compound 0.06325 µM,0.755
same,relative viability,NCI-H1944; first compound 0.2 µM,0.781
same,relative viability,NCI-H2023; first compound 0.002 µM,0.59
same,relative viability,NCI-H2023; first compound 0.006325 µM,0.609
same,relative viability,NCI-H2023; first compound 0.02 µM,0.529
same,relative viability,NCI-H2023; first compound 0.06325 µM,0.255
same,relative viability,NCI-H2023; first compound 0.2 µM,0.0672
same,relative viability,HCC-827; first compound 0.002 µM,1
same,relative viability,HCC-827; first compound 0.006325 µM,0.981
same,relative viability,HCC-827; first compound 0.02 µM,0.849
same,relative viability,HCC-827; first compound 0.06325 µM,0.976
same,relative viability,HCC-827; first compound 0.2 µM,0.931
same,relative viability,NCI-H2228; first compound 0.002 µM,0.808
same,relative viability,NCI-H2228; first compound 0.006325 µM,0.595
same,relative viability,NCI-H2228; first compound 0.02 µM,0.156
same,relative viability,NCI-H2228; first compound 0.06325 µM,0.142
same,relative viability,NCI-H2228; first compound 0.2 µM,0.136
same,relative viability,HCC-366; first compound 0.002 µM,0.442
same,relative viability,HCC-366; first compound 0.006325 µM,0.496
same,relative viability,HCC-366; first compound 0.02 µM,0.312
same,relative viability,HCC-366; first compound 0.06325 µM,0.0181
same,relative viability,HCC-366; first compound 0.2 µM,0.0182
same,relative viability,COR-L23; first compound 0.002 µM,0.825
same,relative viability,COR-L23; first compound 0.006325 µM,0.685
same,relative viability,COR-L23; first compound 0.02 µM,0.714
same,relative viability,COR-L23; first compound 0.06325 µM,0.0624
same,relative viability,COR-L23; first compound 0.2 µM,0.0515
same,relative viability,SW 1573; first compound 0.002 µM,0.714
same,relative viability,SW 1573; first compound 0.006325 µM,0.728
same,relative viability,SW 1573; first compound 0.02 µM,0.501
same,relative viability,SW 1573; first compound 0.06325 µM,0.165
same,relative viability,SW 1573; first compound 0.2 µM,0.113
same,relative viability,ABC-1; first compound 0.002 µM,0.976
same,relative viability,ABC-1; first compound 0.006325 µM,0.95
same,relative viability,ABC-1; first compound 0.02 µM,1.15
same,relative viability,ABC-1; first compound 0.06325 µM,0.392
same,relative viability,ABC-1; first compound 0.2 µM,0.3
same,relative viability,NCI-H2085; first compound 0.002 µM,0.967
same,relative viability,NCI-H2085; first compound 0.006325 µM,0.989
same,relative viability,NCI-H2085; first compound 0.02 µM,0.937
same,relative viability,NCI-H2085; first compound 0.06325 µM,0.542
same,relative viability,NCI-H2085; first compound 0.2 µM,0.397
same,relative viability,LCLC-103H; first compound 0.002 µM,0.969
same,relative viability,LCLC-103H; first compound 0.006325 µM,1.01
same,relative viability,LCLC-103H; first compound 0.02 µM,0.85
same,relative viability,LCLC-103H; first compound 0.06325 µM,0.928
same,relative viability,LCLC-103H; first compound 0.2 µM,1
same,relative viability,NCI-H3122; first compound 0.002 µM,0.756
same,relative viability,NCI-H3122; first compound 0.006325 µM,0.672
same,relative viability,NCI-H3122; first compound 0.02 µM,0.648
same,relative viability,NCI-H3122; first compound 0.06325 µM,0.179
same,relative viability,NCI-H3122; first compound 0.2 µM,0.149
same,relative viability,PC-14; first compound 0.002 µM,0.942
same,relative viability,PC-14; first compound 0.006325 µM,0.882
same,relative viability,PC-14; first compound 0.02 µM,0.893
same,relative viability,PC-14; first compound 0.06325 µM,0.091
same,relative viability,PC-14; first compound 0.2 µM,0.0816
same,relative viability,NCI-H2347; first compound 0.002 µM,1.14
same,relative viability,NCI-H2347; first compound 0.02 µM,0.779
same,relative viability,NCI-H2347; first compound 0.06325 µM,0.936
same,relative viability,NCI-H2347; first compound 0.2 µM,0.382
same,relative viability,NCI-H1355; first compound 0.002 µM,0.915
same,relative viability,NCI-H1355; first compound 0.006325 µM,0.913
same,relative viability,NCI-H1355; first compound 0.02 µM,0.403
same,relative viability,NCI-H1355; first compound 0.06325 µM,0.903
same,relative viability,NCI-H1355; first compound 0.2 µM,0.594
same,relative viability,NCI-H1793; first compound 0.002 µM,0.806
same,relative viability,NCI-H1793; first compound 0.006325 µM,0.536
same,relative viability,NCI-H1793; first compound 0.02 µM,0.319
same,relative viability,NCI-H1793; first compound 0.06325 µM,0.212
same,relative viability,NCI-H1793; first compound 0.2 µM,0.165
same,relative viability,NCI-H2405; first compound 0.002 µM,0.968
same,relative viability,NCI-H2405; first compound 0.006325 µM,0.513
same,relative viability,NCI-H2405; first compound 0.02 µM,0.483
same,relative viability,NCI-H2405; first compound 0.06325 µM,0.19
same,relative viability,NCI-H2405; first compound 0.2 µM,0.15
same,relative viability,HCC-15; first compound 0.002 µM,0.964
same,relative viability,HCC-15; first compound 0.006325 µM,0.852
same,relative viability,HCC-15; first compound 0.02 µM,0.773
same,relative viability,HCC-15; first compound 0.06325 µM,0.54
same,relative viability,HCC-15; first compound 0.2 µM,0.492
same,relative viability,EPLC-272H; first compound 0.006325 µM,0.811
same,relative viability,EPLC-272H; first compound 0.02 µM,0.674
same,relative viability,EPLC-272H; first compound 0.06325 µM,0.879
same,relative viability,EPLC-272H; first compound 0.2 µM,0.93
same,relative viability,NCI-H1734; first compound 0.002 µM,0.708
same,relative viability,NCI-H1734; first compound 0.006325 µM,0.736
same,relative viability,NCI-H1734; first compound 0.02 µM,0.541
same,relative viability,NCI-H1734; first compound 0.06325 µM,0.213
same,relative viability,NCI-H1734; first compound 0.2 µM,0.158
